Measurements reported in patent US20240383901A1, “SUBSTITUTED PYRROLO[2,3-D]PYRIMIDINES, THEIR PREPARATION AND THEIR THERAPEUTIC APPLICATION” (SANOFI, priority 2021, published 2024).

What was measured:
[1] = target: T1, full-length LRRK2 wild type (Homo sapiens, UniProt Q5S007); experiment: LRRK2 WT assay (Assay A, Lanthascreen TR-FRET, 500 uM ATP); type: biochemical; details: Assay A (values without *)
T1 construct: DYDDDDK tagged full-length LRRK2 wild type is used
Description: (§1) The potency of compounds was evaluated in vitro using the Lanthascreen® technology (ThermoFisher Scientific).
(§2) In a typical experiment, the reaction assay buffer contains 50 mM Tris pH8.2, 1 mM EGTA, 2.5 mM MgCl2, 0.05% Triton X100, 0.15% BSA and 1 mM DTT. The detection of the assay is performed using 1 nM Terbium labeled anti-phospho-LRRKtide (ThermoFisher Scientific) diluted in a TR-FRET buffer (ThermoFisher Scientific).
(§3) The experimental procedure was performed with Greiner small volume® 384-well. […] The working solution of compounds was prepared in a separate Greiner microplate.
(§4) The kinase reaction was initiated by addition of the ATP/LRRKtide substrate mix diluted in the reaction assay buffer. The reaction mix was incubated for at least 10 minutes at room temperature (initial velocity conditions). Reaction was stopped by addition of Terbium labeled anti-phospho-LRRKtide diluted into the detection buffer supplemented with EDTA (ThermoFisher Scientific). Plates are incubated for at least 30 minutes at room temperature and read on an Envision™ multimode plate reader (PerkinElmer) with LanthaScreen™. The TR-FRET 520:495 nm emission ratio was calculated and used to determine the IC50 value from a dose response curve fit to the 4-parameter logistic equation. The activity with respect to LRRK2 kinase in this test is given by the concentration which inhibits 50% of the LRRK2 activity (or IC50) in nM.

full-length LRRK2 G2019S = target: T2, full-length LRRK2 G2019S (Homo sapiens, UniProt Q5S007, G2019S); experiment: LRRK2-G2019S kinase activity assay (Lanthascreen TR-FRET); type: biochemical; details: 1.1 mM ATP
T2 construct: DYKDDDDK (FLAG)
T2 sequence (Q5S007 whole entry G2019S): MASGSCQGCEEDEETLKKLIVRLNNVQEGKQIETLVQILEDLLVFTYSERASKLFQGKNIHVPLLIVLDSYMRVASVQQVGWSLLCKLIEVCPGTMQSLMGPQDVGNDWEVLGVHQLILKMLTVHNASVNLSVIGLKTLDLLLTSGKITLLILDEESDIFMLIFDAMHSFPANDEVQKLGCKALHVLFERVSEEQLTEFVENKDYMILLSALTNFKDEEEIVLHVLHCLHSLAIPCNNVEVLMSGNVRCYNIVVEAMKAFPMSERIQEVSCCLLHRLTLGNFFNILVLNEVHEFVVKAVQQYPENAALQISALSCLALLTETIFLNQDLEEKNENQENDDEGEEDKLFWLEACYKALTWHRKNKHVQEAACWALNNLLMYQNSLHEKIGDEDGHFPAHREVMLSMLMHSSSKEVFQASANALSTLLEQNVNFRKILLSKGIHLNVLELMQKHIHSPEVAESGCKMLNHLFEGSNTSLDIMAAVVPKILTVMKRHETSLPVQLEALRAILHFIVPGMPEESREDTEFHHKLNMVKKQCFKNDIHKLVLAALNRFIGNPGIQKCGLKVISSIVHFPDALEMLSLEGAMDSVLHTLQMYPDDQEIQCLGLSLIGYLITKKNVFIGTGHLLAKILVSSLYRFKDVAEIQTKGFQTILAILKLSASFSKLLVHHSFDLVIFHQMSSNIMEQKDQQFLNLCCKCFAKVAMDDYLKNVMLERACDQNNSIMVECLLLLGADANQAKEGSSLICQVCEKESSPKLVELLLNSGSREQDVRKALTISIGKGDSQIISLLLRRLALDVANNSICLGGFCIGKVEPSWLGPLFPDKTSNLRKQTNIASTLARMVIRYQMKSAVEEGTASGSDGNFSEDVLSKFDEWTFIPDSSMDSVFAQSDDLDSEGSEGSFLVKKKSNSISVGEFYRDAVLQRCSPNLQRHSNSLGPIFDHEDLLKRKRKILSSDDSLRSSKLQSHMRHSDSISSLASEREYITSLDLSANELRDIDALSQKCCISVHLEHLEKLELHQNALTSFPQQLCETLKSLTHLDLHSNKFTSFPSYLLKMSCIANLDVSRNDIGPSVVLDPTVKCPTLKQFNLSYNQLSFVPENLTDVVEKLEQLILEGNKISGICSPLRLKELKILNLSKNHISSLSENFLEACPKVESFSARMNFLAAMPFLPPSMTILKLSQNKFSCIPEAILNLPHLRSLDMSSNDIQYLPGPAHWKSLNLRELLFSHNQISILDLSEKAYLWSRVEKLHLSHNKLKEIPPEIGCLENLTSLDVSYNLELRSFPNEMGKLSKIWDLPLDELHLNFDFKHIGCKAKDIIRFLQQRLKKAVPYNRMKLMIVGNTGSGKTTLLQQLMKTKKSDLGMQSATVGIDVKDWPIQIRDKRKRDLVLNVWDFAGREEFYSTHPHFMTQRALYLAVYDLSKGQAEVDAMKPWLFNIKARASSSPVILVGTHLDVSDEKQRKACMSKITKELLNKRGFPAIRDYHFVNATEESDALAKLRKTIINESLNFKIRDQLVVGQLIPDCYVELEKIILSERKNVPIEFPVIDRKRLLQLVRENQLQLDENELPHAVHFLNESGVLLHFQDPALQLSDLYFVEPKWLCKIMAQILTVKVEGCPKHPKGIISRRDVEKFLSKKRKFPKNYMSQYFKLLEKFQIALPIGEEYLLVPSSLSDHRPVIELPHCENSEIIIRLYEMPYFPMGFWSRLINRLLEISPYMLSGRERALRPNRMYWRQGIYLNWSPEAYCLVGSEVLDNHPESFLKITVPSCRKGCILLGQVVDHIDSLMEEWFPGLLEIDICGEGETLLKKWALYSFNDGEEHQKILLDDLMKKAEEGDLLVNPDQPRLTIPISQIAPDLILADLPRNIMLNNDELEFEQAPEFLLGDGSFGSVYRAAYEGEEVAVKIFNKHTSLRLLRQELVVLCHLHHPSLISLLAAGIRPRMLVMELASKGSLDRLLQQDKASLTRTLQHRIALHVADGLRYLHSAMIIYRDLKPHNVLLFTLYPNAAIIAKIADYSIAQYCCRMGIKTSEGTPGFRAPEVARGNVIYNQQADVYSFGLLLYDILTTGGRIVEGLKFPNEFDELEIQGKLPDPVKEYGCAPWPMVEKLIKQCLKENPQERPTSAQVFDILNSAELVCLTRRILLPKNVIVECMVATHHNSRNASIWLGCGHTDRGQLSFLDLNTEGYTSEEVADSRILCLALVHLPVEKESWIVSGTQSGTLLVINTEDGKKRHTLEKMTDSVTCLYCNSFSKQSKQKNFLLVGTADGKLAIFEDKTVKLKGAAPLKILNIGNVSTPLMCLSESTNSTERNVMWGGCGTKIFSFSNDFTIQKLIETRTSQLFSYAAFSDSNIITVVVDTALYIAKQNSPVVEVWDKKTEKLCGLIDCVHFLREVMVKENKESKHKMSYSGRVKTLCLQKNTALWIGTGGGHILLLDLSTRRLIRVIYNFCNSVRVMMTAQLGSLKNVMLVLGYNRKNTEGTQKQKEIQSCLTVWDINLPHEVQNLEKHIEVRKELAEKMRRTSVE
Description: as §1, §2, §3, §4

T1 sequence (Q5S007 whole entry): as the sequence (Q5S007 whole entry G2019S) above, with S2019G counted along it

IC50 [1] [nM]	IC50 (full-length LRRK2 G2019S) [nM]	SMILES
153	222	COCCn1cc(Nc2ncc3cc(C#N)n(C4CCOCC4)c3n2)c(OC2CC2)n1 [Example 122, 2-((3-Cyclopropoxy-1-(2-methoxyethyl)-1 H-pyrazol-4-yl)amino)-7-(tetrahydro-2H-pyran-4-yl)-7H-pyrrolo[2,3-d]pyrimidine-6-carbonitrile]
31	27	COC[C@H](C)n1c(C#N)cc2cnc(Nc3cn(CCO)nc3OC3CCOC3)nc21 (mixture of isomers) [Example 151, 2-((1-(2-hydroxyethyl)-3-((tetrahydrofuran-3-yl)oxy)-1 H-pyrazol-4-yl)amino)-7-((S)-1-methoxypropan-2-yl)-7H-pyrrolo[2,3-d]pyrimidine-6-carbonitrile]
144	183	COCC(C)n1cc(Nc2ncc3cc(C#N)n(C4CCOCC4)c3n2)c(OC2CC2)n1 (single isomer, unassigned) [Example 127, 2-((3-cyclopropoxy-1-(1-methoxypropan-2-yl)-1 H-pyrazol-4-yl)amino)-7-(tetrahydro-2H-pyran-4-yl)-7H-pyrrolo[2,3-d]pyrimidine-6-carbonitrile]
43	39	[2H]C([2H])([2H])n1cc(Nc2ncc3cc(C#N)n([C@@H](C)COC)c3n2)c(OC2CC(O)C2(C)C)n1 (single isomer, unassigned) [Example 135]
81	104	COCC(C)n1cc(Nc2ncc3cc(C#N)n([C@H]4COC[C@@H]4C)c3n2)c(OC2COC2)n1 (stereo partly drawn) [Example 128, 2-((1-(1-Methoxypropan-2-yl)-3-(oxetan-3-yloxy)-1 H-pyrazol-4-yl)amino)-7-((3R,4R)-4-methyltetrahydrofuran-3-yl)-7H-pyrrolo[2,3-d]pyrimidine-6-carbonitrile]
62	57	COCC(C)n1c(C#N)cc2cnc(Nc3cn(C4CCC(C)(O)CC4)nc3OC(C)C)nc21 [Example 105, trans-2-((1-(4-hydroxy-4-methylcyclohexyl)-3-isopropoxy-1H-pyrazol-4-yl)amino)-7-((S)-1-methoxypropan-2-yl)-7H-pyrrolo[2,3-d]pyrimidine-6-carbonitrile]
44	54	[2H]C([2H])([2H])n1cc(Nc2ncc3cc(C#N)n(C4COCC4C)c3n2)c(OC2CCC2(C)O)n1 (single isomer, unassigned) [Example 141]
35	31	COCCn1cc(Nc2ncc3cc(C#N)n([C@@H](C)COC)c3n2)c(OC2CC2)n1 [Example 103, (S)-2-((3-cyclopropoxy-1-(2-methoxyethyl)-1H-pyrazol-4-yl)amino)-7-(1-methoxypropan-2-yl)-7H-pyrrolo[2,3-d]pyrimidine-6-carbonitrile]
41	37	COCC(C)n1cc(Nc2ncc3cc(C#N)n([C@@H](C)COC)c3n2)c(OC2COC2)n1 (single isomer, unassigned) [Example 129]
12	17	[2H]C([2H])([2H])n1cc(Nc2ncc3cc(C#N)n([C@H]4COC[C@@H]4C)c3n2)c(OC2COC2(C)C)n1 (single isomer, unassigned) [Example 119]
133	181	[2H]C([2H])([2H])n1cc(Nc2ncc3cc(C#N)n(C4CCOCC4)c3n2)c(OC2COC2(C)C)n1 (single isomer, unassigned) [Example 121, 2-((3-((2,2-dimethyloxetan-3-yl)oxy)-1-(methyl-d3)-1 H-pyrazol-4-yl)amino)-7-(tetrahydro-2H-pyran-4-yl)-7H-pyrrolo[2,3-d]pyrimidine-6-carbonitrile]
27	27	COCCn1cc(Nc2ncc3cc(C#N)n([C@H]4COC[C@@H]4C)c3n2)c(OC2CC2)n1 [Example 113, 2-((3-Cyclopropoxy-1-(2-methoxyethyl)-1 H-pyrazol-4-yl)amino)-7-((3R,4R)-4-methyltetrahydrofuran-3-yl)-7H-pyrrolo[2,3-d]pyrimidine-6-carbonitrile]

SMILES	IC50 [1] [nM]	IC50 (full-length LRRK2 G2019S) [nM]
CO[C@H]1COC[C@H]1n1c(C#N)cc2cnc(Nc3cn(C4COC4)nc3OC(C)C(F)(F)F)nc21 (mixture of isomers) [Example 54, 7-((3R,4R)-4-Methoxytetrahydrofuran-3-yl)-2-((1-(oxetan-3-yl)-3-((1,1,1-trifluoropropan-2-yl)oxy)-1 H-pyrazol-4-yl)amino)-7H-pyrrolo[2,3-d]pyrimidine-6-carbonitrile]	61	27
CC(C)Oc1nn(CC(F)(F)F)cc1Nc1ncc2cc(C#N)n([C@H]3COC[C@@H]3C)c2n1 [Example 25, 2-((3-Isopropoxy-1-(2,2,2-trifluoroethyl)-1H-pyrazol-4-yl)amino)-7-((3R,4R)-4-methyltetrahydrofuran-3-yl)-7H-pyrrolo[2,3-d]pyrimidine-6-carbonitrile]	1	1
CC(C)Oc1nn(C(C)(C)C#N)cc1Nc1ncc2cc(C#N)n(C3COC3)c2n1 [Example 74, 2-((1-(2-Cyanopropan-2-yl)-3-isopropoxy-1H-pyrazol-4-yl)amino)-7-(oxetan-3-yl)-7H-pyrrolo[2,3-d]pyrimidine-6-carbonitrile]	20	14
COC[C@H](C)n1c(C#N)cc2cnc(Nc3cn(C)nc3O[C@@H]3CO[C@H]3C)nc21 (single isomer, unassigned) [Example 88]	20	12
COCn1cc(Nc2ncc3cc(C#N)n([C@H]4COC[C@@H]4C)c3n2)c(OC2CC2)n1 [Example 35, 2-((3-Cyclopropoxy-1-(methoxymethyl)-1H-pyrazol-4-yl)amino)-7-((3R,4R)-4-methyltetrahydrofuran-3-yl)-7H-pyrrolo[2,3-d]pyrimidine-6-carbonitrile]	4	6
C[C@@H]1COC[C@H]1n1c(C#N)cc2cnc(Nc3cn(C)nc3OC3COC3)nc21 [Example 44, 2-((1-Methyl-3-(oxetan-3-yloxy)-1 H-pyrazol-4-yl)amino)-7-((3S,4S)-4-methyltetrahydrofuran-3-yl)-7H-pyrrolo[2,3-d]pyrimidine-6-carbonitrile]	196	191
CC(C)Oc1nn(C)cc1Nc1ncc2cc(C#N)n([C@@H]3COC[C@@H]3C)c2n1 (racemic) [Example 47, 2-((3-isopropoxy-1-methyl-1 H-pyrazol-4-yl)amino)-7-((cis)-4-methyltetrahydrofuran-3-yl)-7H-pyrrolo[2,3-d]pyrimidine-6-carbonitrile]	36	31
C[C@H]1COC[C@@H]1n1c(C#N)cc2cnc(Nc3ccc(CN(C)C)cc3OC3CC3)nc21 [Example 41, 2-((2-Cyclopropoxy-4-((dimethylamino)methyl)phenyl)amino)-7-((3R,4R)-4-methyltetrahydrofuran-3-yl)-7H-pyrrolo[2,3-d]pyrimidine-6-carbonitrile]	4	3
C[C@@H]1OC[C@H]1n1c(C#N)cc2cnc(Nc3cn(C)nc3OC3COC3)nc21 (single isomer, unassigned) [Example 76, 7-[(trans)-2-methyloxetan-3-yl]-2-[[1-methyl-3-(oxetan-3-yloxy)pyrazol-4-yl]amino]pyrrolo[2,3-d]pyrimidine-6-carbonitrile]	241	200
